Laboratory results as given in publication PMC6423518 (Bioorganic & medicinal chemistry letters, 2018).
Entries after “also recorded” stand apart in the source; their conditions may differ.

Test system: MDA-MB-231 cells
Test: Acridine orange/ethidium bromide
Type: cell-based, human
Settings: fluorescence microscopy

Structure (SMILES) | Cell death / apoptosis by AO/EB staining
COc1cc(/C=C/C(=O)c2c3[nH]c4ccccc4c3cc[n+]2Cc2ccccc2)cc(OC)c1OC.[Br-] [Compound 13g] | induces apoptosis; also recorded: markedly induced cell death
COc1cccc2c1C(=O)c1c(O)c3c(c(O)c1C2=O)C[C@@](O)(C(=O)CO)C[C@@H]3O[C@H]1C[C@H](N)[C@H](O)[C@H](C)O1 [Doxorubicin, reference compound] | morphological changes characteristic of apoptotic cells formation
